Where “and” joins values, the source holds several entries; their conditions need not be identical. Identical values can stand only once.
Target: ACSS2 (Homo sapiens, UniProt Q9NR19)
Experiment: biochemical
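Also: Cell-free human ACSS2 enzyme reaction with acetate, CoA and ATP, 90 min at 37 C, coupled to pyrophosphatase, phosphate release detected by Biomol Green absorbance at 620 nm.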

Sequence of ACSS2 (Q9NR19 whole entry): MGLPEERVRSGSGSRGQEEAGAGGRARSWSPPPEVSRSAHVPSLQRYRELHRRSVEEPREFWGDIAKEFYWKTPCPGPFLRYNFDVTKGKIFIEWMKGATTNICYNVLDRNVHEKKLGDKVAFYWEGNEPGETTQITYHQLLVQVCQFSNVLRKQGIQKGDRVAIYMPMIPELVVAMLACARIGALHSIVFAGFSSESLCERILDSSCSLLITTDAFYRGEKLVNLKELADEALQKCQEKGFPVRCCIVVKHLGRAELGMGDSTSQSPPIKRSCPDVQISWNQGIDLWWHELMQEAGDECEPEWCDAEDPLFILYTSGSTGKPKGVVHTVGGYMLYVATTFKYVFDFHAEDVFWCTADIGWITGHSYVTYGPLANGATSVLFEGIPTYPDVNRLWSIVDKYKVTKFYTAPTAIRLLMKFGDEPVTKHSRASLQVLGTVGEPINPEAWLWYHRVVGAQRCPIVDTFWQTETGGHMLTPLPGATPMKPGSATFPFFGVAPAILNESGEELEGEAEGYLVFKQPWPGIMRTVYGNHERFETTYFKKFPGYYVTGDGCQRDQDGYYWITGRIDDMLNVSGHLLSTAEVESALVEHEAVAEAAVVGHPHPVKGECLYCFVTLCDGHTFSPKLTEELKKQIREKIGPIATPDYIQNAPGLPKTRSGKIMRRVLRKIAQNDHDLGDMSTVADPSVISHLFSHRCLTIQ
Procedure: ACSS2 Cell-Free Activity Assay (Cell-Free IC50)
The assay is based on a coupling reaction with Pyrophosphatase: ACSS2 is converting ATP+CoA+Acetate=>AMP+pyrophosphate+Acetyl-CoA (Ac-CoA). Pyrophosphatase converts pyrophosphate, a product of the ACSS2 reaction, to phosphate which can be detected by measuring the absorbance at 620 nm after incubation with the Biomol green reagent (Enzo life Science, BML-AK111).
Cell-free IC50 Determination:
At the end of the reaction, Biomol Green was added for 30 minutes at RT and the activity was measured by reading the absorbance at 620 nm.

Row | Compound | IC50
1 | CC1=NN(c2ccccc2)C(=O)C1C(=O)Nc1cccc(C(C)C)c1 (centres unmarked) [compound 100, N-(3-isopropylphenyl)-3-methyl-5-oxo-1-phenyl-4,5-dihydro-1H-pyrazole-4-carboxamide] | 0.1 to 1 µM
2 | CC1=NN(c2ccccc2)C(=O)C1C(=O)Nc1cccc(-c2cccs2)c1 (centres unmarked) [compound 101, 3-methyl-5-oxo-1-phenyl-N-(3-(thiophen-2-yl)phenyl)-4,5-dihydro-1H-pyrazole-4-carboxamide] | 0.006 to 0.1 µM
3 | CC1=NN(c2ccccc2)C(=O)C1C(=O)Nc1cccc(-c2ccccc2)c1 (centres unmarked) [compound 102, N-([1,1′-biphenyl]-3-yl)-3-methyl-5-oxo-1-phenyl-4,5-dihydro-1H-pyrazole-4-carboxamide] | 0.1 to 1 µM
4 | COCc1cccc(NC(=O)C2C(=O)N(c3ccccc3)N=C2C)c1 (centres unmarked) [compound 103, N-(3-(methoxymethyl)phenyl)-3-methyl-5-oxo-1-phenyl-4,5-dihydro-1H-pyrazole-4-carboxamide] | 0.1 to 1 µM and 0.006 to 0.1 µM
5 | CC1=NN(c2ccccc2)C(=O)C1C(=O)Nc1cccc(-c2ccncc2)c1 (centres unmarked) [compound 104, 3-methyl-5-oxo-1-phenyl-N-(3-(pyridin-4-yl)phenyl)-4,5-dihydro-1H-pyrazole-4-carboxamide] | 1 to 100 µM
6 | CC1=NN(c2ccccc2)C(=O)C1C(=O)Nc1ccc(S(=O)(=O)N(C)C)cc1 (centres unmarked) [compound 105, N-(4-(N,N-dimethylsulfamoyl)phenyl)-3-methyl-5-oxo-1-phenyl-4,5-dihydro-1H-pyrazole-4-carboxamide] | 1 to 100 µM
7 | CC1=NN(c2ccccc2)C(=O)C1C(=O)NC1CCOC1 (centres unmarked) [compound 106, 3-methyl-5-oxo-1-phenyl-N-(tetrahydrofuran-3-yl)-4,5-dihydro-1H-pyrazole-4-carboxamide] | > 100 µM
8 | CC1=NN(c2ccc(S(=O)(=O)N(C)C)cc2)C(=O)C1C(=O)Nc1ccccc1 (centres unmarked) [compound 110, 1-(4-(N,N-dimethylsulfamoyl)phenyl)-3-methyl-5-oxo-N-phenyl-4,5-dihydro-1H-pyrazole-4-carboxamide] | 0.1 to 1 µM
9 | CC1=NN(c2ccccc2)C(=O)C1C(=O)Nc1cccc(CO)c1 (centres unmarked) [compound 111, N-(3-(hydroxymethyl)phenyl)-3-methyl-5-oxo-1-phenyl-4,5-dihydro-1H-pyrazole-4-carboxamide] | 1 to 100 µM
10 | CC1=NN(c2ccccc2)C(=O)C1C(=O)NC1CCOCC1 (centres unmarked) [compound 112, 3-methyl-5-oxo-1-phenyl-N-(tetrahydro-2H-pyran-4-yl)-4,5-dihydro-1H-pyrazole-4-carboxamide] | 1 to 100 µM
11 | CCOC(=O)c1cccc(NC(=O)C2C(=O)N(c3ccccc3)N=C2C)c1 (centres unmarked) [compound 113, Ethyl 3-(3-methyl-5-oxo-1-phenyl-4,5-dihydro-1H-pyrazole-4-carboxamido)benzoate] | 0.006 to 0.1 µM
12 | CC1=NN(c2ccccc2)C(=O)C1C(=O)Nc1cccc(C(C)(C)C)c1 (centres unmarked) [compound 115, N-(3-(tert-butyl)phenyl)-3-methyl-5-oxo-1-phenyl-4,5-dihydro-1H-pyrazole-4-carboxamide] | 0.1 to 1 µM
13 | CC1=NN(c2ccccc2)C(=O)C1C(=O)Nc1cccc(C(=O)O)c1 (centres unmarked) [compound 116, 3-(3-methyl-5-oxo-1-phenyl-4,5-dihydro-1H-pyrazole-4-carboxamido)benzoic acid] | 1 to 100 µM
14 | CCCCCc1cccc(NC(=O)C2C(=O)N(c3ccccc3)N=C2C)c1 (centres unmarked) [compound 118, 3-methyl-5-oxo-N-(3-pentylphenyl)-1-phenyl-4,5-dihydro-1H-pyrazole-4-carboxamide] | 1 to 100 µM
15 | CC(=O)c1cccc(NC(=O)C2C(=O)N(c3ccc(C(=O)O)cc3)N=C2C)c1 (centres unmarked) [compound 120, 4-(4-((3-acetylphenyl)carbamoyl)-3-methyl-5-oxo-4,5-dihydro-1H-pyrazol-1-yl)benzoic acid] | 0.1 to 1 µM
16 | CC1=NN(c2ccccc2)C(=O)C1C(=O)NC1CCNCC1 (centres unmarked) [compound 121, 3-methyl-5-oxo-1-phenyl-N-(4-piperidyl)-4H-pyrazole-4-carboxamide] | 1 to 100 µM
17 | CC1=NN(c2ccccc2)C(=O)C1C(=O)Nc1ccc2c(c1)C(=O)OC2 (centres unmarked) [compound 122, 3-methyl-5-oxo-N-(3-oxo-1,3-dihydroisobenzofuran-5-yl)-1-phenyl-4,5-dihydro-1H-pyrazole-4-carboxamide] | 1 to 100 µM
18 | CC(=O)c1cccc(NC(=O)C2C(=O)N(c3cccc(C(=O)O)c3)N=C2C)c1 (centres unmarked) [compound 123, 3-(4-((3-acetylphenyl)carbamoyl)-3-methyl-5-oxo-4,5-dihydro-1H-pyrazol-1-yl)benzoic acid] | 0.1 to 1 µM
19 | CCc1cccc(NC(=O)C2C(=O)N(c3ccncc3)N=C2C)c1 (centres unmarked) [compound 125, N-(3-ethylphenyl)-3-methyl-5-oxo-1-(pyridin-4-yl)-4,5-dihydro-1H-pyrazole-4-carboxamide] | 0.1 to 1 µM
20 | CCc1cccc(NC(=O)C2C(=O)N(c3ccccc3)N=C2c2ccccc2)c1 (centres unmarked) [compound 126, N-(3-ethylphenyl)-5-oxo-1,3-diphenyl-4,5-dihydro-1H-pyrazole-4-carboxamide] | 1 to 100 µM
21 | CCc1cccc(NC(=O)C2C(=O)N(c3ccc(C(F)(F)F)cc3)N=C2C)c1 (centres unmarked) [compound 127, N-(3-ethylphenyl)-3-methyl-5-oxo-1-(4-(trifluoromethyl)phenyl)-4,5-dihydro-1H-pyrazole-4-carboxamide] | 0.006 to 0.1 µM
22 | CCc1cccc(NC(=O)C2C(=O)N(c3ccccc3)N=C2C(C)C)c1 (centres unmarked) [compound 128, N-(3-ethylphenyl)-3-isopropyl-5-oxo-1-phenyl-4,5-dihydro-1H-pyrazole-4-carboxamide] | 1 to 100 µM
23 | CCc1cccc(NC(=O)C2C(=O)N(c3ccccc3)N=C2Cc2ccccc2)c1 (centres unmarked) [compound 129, 3-benzyl-N-(3-ethylphenyl)-5-oxo-1-phenyl-4,5-dihydro-1H-pyrazole-4-carboxamide] | 1 to 100 µM
24 | CCc1cccc(NC(=O)C2C(=O)N(c3ccccc3)N=C2C(F)(F)F)c1 (centres unmarked) [compound 130, N-(3-ethylphenyl)-5-oxo-1-phenyl-3-(trifluoromethyl)-4,5-dihydro-1H-pyrazole-4-carboxamide] | 1 to 100 µM
25 | CC1=NN(c2ccccc2)C(=O)C1C(=O)Nc1cccc(CN(C)C)c1 (centres unmarked) [compound 131, N-(3-((dimethylamino)methyl)phenyl)-3-methyl-5-oxo-1-phenyl-4,5-dihydro-1H-pyrazole-4-carboxamide] | 1 to 100 µM
26 | CC1=NN(c2ccccc2)C(=O)C1C(=O)Nc1cccc(-c2cncnc2)c1 (centres unmarked) [compound 132, 3-methyl-5-oxo-1-phenyl-N-(3-(pyrimidin-5-yl)phenyl)-4,5-dihydro-1H-pyrazole-4-carboxamide] | 0.1 to 1 µM
27 | CCc1cccc(NC(=O)C2C=NN(c3ccccc3)C2=O)c1 (centres unmarked) [compound 133, N-(3-ethylphenyl)-5-oxo-1-phenyl-4,5-dihydro-1H-pyrazole-4-carboxamide] | 0.1 to 1 µM
28 | CCOc1ccc(N2N=C(C)C(C(=O)Nc3cccc(CC)c3)C2=O)cc1 (centres unmarked) [compound 134, 1-(4-ethoxyphenyl)-N-(3-ethylphenyl)-3-methyl-5-oxo-4,5-dihydro-1H-pyrazole-4-carboxamide] | 1 to 100 µM
29 | CCOC(=O)c1cc(NC(=O)C2C(=O)N(c3ccccc3)N=C2C)ccn1 (centres unmarked) [compound 135, ethyl 4-(3-methyl-5-oxo-1-phenyl-4,5-dihydro-1H-pyrazole-4-carboxamido)picolinate] | 0.1 to 1 µM

From patent publication US10851064B2, “ACSS2 inhibitors and methods of use thereof” (METABOMED LTD., priority 2017, dated 2020)
